Data on one compound can be found in US8592374B2, “Neurotrophic peptides” (Research Foundation for Mental Hygiene, Inc., priority 2007, dated 2013).

Data set [1] in a line: General examination (physical state, body weight, exploratory activity, swim speed, floating). Type of data set: in vivo, mice. As to conditions: 25 nmol/day for 35 days. On the procedure: All in vivo studies for characterization of compounds (stereology and behavioral analysis) were performed on 8-10-month-old female retired breeders of C57Bl6 background. Animals were acclimatized for at least 3 weeks to exclude occasional pregnant mice from the studies. Mice were group-housed (3 animals per cage) with a 12:12 hours light/dark cycle and with free access to food and water.
(§1) For the compound treatment, mice (8 animals/group) received subcutaneous implants of extended release depot pellets containing P21 or P22 at 25 nmol/day for 35 days of continuous dosing (Innovative Research of America, USA). For the control group (8 animals), pellets consisted of the carrier polymer only. Mice were anesthetized with 2.5% Avertin (0.38 ml for a 25 g animal). Under sterile conditions, pellets were implanted subcutaneously along the anterolateral aspect of the right shoulder with a precision trochar (Innovative Research of America). After recovery of anesthesia, animals were transferred to the animal colony. No complications associated with the implantation and treatment were observed. All procedures on animals were conducted in accordance with approved protocols from our Institutional Animal Welfare Committee.
The physical state and condition of animals were carefully monitored throughout the treatment by evaluating grooming, physical state and clasping reflex. Body weight was also recorded.
The test used was an adaptation of the procedure previously described by Sargolini and collaborators (Sargolini, F., et al. Behav Brain Res 138 (2003):153-63). The testing apparatus was a classic open field (i.e. a PVC square arena, 50×50 cm, with walls 40 cm high). The open field was placed in a part of the room separated from the experimentator with a black opaque curtain. The open field was surmounted by a video camera connected to a computer. Three objects were employed in this task. The general procedure consisted of three different phases: a familiarization phase (1 session of 20 min), a sample phase, and a test phase. On the first days, mice were individually submitted to the familiarization session during which they were introduced in the empty arena in order to become familiar with the apparatus. This familiarization session allowed to record a baseline level of locomotor activity (measuring the distance covered in the open field) and of anxiety (measuring the time the animals spent in the centre of the arena during the first five minutes). On the second day each mouse was first submitted to the sample phase (session 1, ten minutes) for which two identical objects were placed in a symmetric position from the centre of the arena. After a 15 minute delay during which the mouse returned to its home cage, it was reintroduced in the arena to perform the test phase (session 2, 10 min). The mouse was then exposed to two objects: a familiar object (previously presented during the sample phase) and a new object, placed at the same location as during the sample phase. Data collection was performed using a video tracking system (Smart version 2.0.14 software, Pan Lab/San Diego Instruments). Object discrimination was calculated as follows: OD=(time spent close to new object)/(time spent close to new object)+(time spent close to old object)×100

Data set [2] concerns normal adult mice. Briefly: Open field, time in the centre of the arena (anxiety). It counts as in vivo. The following applies: 25 nmol/day, first five minutes of familiarization session. On the procedure:
as §1
The test used was an adaptation of the procedure previously described by Sargolini and collaborators (Sargolini, F., et al. Behav Brain Res 138 (2003):153-63). The testing apparatus was a classic open field (i.e. a PVC square arena, 50×50 cm, with walls 40 cm high). The open field was placed in a part of the room separated from the experimentator with a black opaque curtain. […] Object discrimination was calculated as follows: OD=(time spent close to new object)/(time spent close to new object)+(time spent close to old object)×100

Data set [3] has as its system normal adult mice. Briefly: One-trial object recognition test. Type of data set: in vivo. The following applies: 25 nmol/day. On the procedure:
as §1
In the one-trial object recognition task, animals are exposed to two different objects which they have to identify as novel or familiar based on the memory of an earlier experience with one of the two objects they encountered in the same open field. The familiar object is explored shorter than the novel encountered one because the representation of the former is still available in memory. The one-trial object recognition task tests some aspects of episodic memory but is limited to memory of an object (what), the location of an object (where), and the context in which it was encountered (which). However, the temporal dimension of the episode remains inaccessible to the experimentator, and because of this reason this task in animals is considered a test of short term memory.
The test used was an adaptation of the procedure previously described by Sargolini and collaborators (Sargolini, F., et al. Behav Brain Res 138 (2003):153-63). The testing apparatus was a classic open field (i.e. a PVC square arena, 50×50 cm, with walls 40 cm high). […] Object discrimination was calculated as follows: OD=(time spent close to new object)/(time spent close to new object)+(time spent close to old object)×100

For data set [4], the system named is dentate gyrus. The data set is described as follows: Expression of synaptophysin and synapsin I in the DG (optical density). Type of data set: in vivo, mice. The following applies: 25 nmol/day for 35 days. On the procedure:
For double labeling of BrdU and NeuN, brain sections were pretreated with 2 M HCl at 37° C. for 30 min and neutralized with 0.1 M borate buffer (pH 8.5) for 10 minutes. Tissue sections were incubated first for 30 min with blocking buffer (4% normal goat serum+0.1% Tween-20 in PBS) and then overnight at 4° C. in the presence of BrdU (Millipore Corporation, USA) and NeuN (Millipore Corporation) antibodies diluted 1:400 and 1:100, respectively. To determine the integrity of presynaptic terminals, tissues were labeled with anti-synaptophysin (1:200; Clone SY38, Millipore Corporation) or anti-synapsin I (1:200; Stressgen Biotechnologies Corporation, Canada). The brain sections were incubated in primary antibody over night at 4° C., respectively. Alexa 488 and 594 (1:500; Invitrogen, USA) were used as secondary antibodies. All images were obtained using Nikon Eclipse 90i and D-Eclipse C1 microscopes (Nikon Corporation, Japan).
For quantitative analysis of the expression of synaptophysin and synapsin I in DG, every tenth section in a series of 40 μm coronal sections throughout the hippocampus was analyzed. The entire area of GCL was outlined. Maximum projection images were then generated based on confocal z-stacks, and antibody staining was quantified by measuring the mean optical density (OD) with the help of NIH Image J program, version 1.32j (http://rsb.info.nih.gov/ij/).

Data set [5] can be described thus: General examination (physical state, body weight, exploratory activity, swim speed, floating). It counts as in vivo, mice. The following applies: 25 nmol/day for 35 days. This is another data set of the same source.

“Also recorded” adds a separate entry of the source. Peptide text beside a SMILES is read from it. * marks the point of attachment. X1 = NC(=O)C12CC3CC(CC(N*)(C3)C1)C2

With `CC(=O)N[C@@H](CC(=O)O)C(=O)NCC(=O)NCC(=O)N[C@@H](CC(C)C)C(=O)NC12CC3CC(C1)CC(C(N)=O)(C3)C2` [Peptide P21, Ac-DGGL^AG-NH2] (Ac-DGGL-X1), the “exploratory behavior / exploratory activity” value in data set [1] (open field) was “no alteration; also recorded: did not induce any effect”. Also, in data set [1] (subcutaneous pellets), the body weight entry was “no alteration; also recorded: did not induce any effect” and the general physical state entry is “no alteration”. Further, in data set [2], the “level of anxiety (time in the center of the open field)” value was “spent more time in the center of the open field than control animals; also recorded: reduced anxiety level”. For the same compound, the “percentage of discrimination (object discrimination)” value in data set [3] (compared to other groups) is recorded as “significantly increased; also recorded: significantly improved the ability to discriminate a new object”. Moreover, in data set [3] (test phase after 15 minute delay), the “time exploring the new object versus the familiar object” value was “clearly spent more time exploring the new object”. Also, in data set [4], the “synapsin I immunoreactivity in the GCL and MCL” value was “significantly promoted expression; also recorded: Significant increases”; the “synaptophysin immunoreactivity in the GCL and MCL” value was “significantly promoted expression; also recorded: Significant increases”. Besides, in data set [5], the “floating behavior in the water maze task (sign of depression or locomotor impairment)” value is “no floating behavior was observed”. In addition, in data set [5] (water maze), the swim speed result is on record as “no alteration; also recorded: did not induce any effect”.
